Experimental data published in patent US20160220569A1, “CDK4/6 Inhibitor Dosage Formulations For The Protection Of Hematopoietic Stem And Progenitor Cells During Chemotherapy” (G1 Therapeutics, Inc., priority 2015, published 2016).
Read-outs that look alike come from different tables or passages of the source.

Assay: 14-day oral gavage toxicokinetic study in rats
Format: in vivo
Conditions: both sexes, rat, plasma, po; for concentration at 0.5 h / concentration at 1 h / concentration at 2 h / concentration at 4 h / concentration at 8 h / concentration at 12 h / concentration at 24 h: Mean Compound 1 Plasma Concentration, rats, Overall; for half-life: read-out: t½ (converted)
Procedure: Plasma was obtained from blood samples collected from rats in a composite sampling scheme, with 3 samples collected per sex, per dose, at each target collection time, as illustrated in Table 21 to Table 25. Samples were collected from the vehicle control group on Day 1 and Day 14 at 3 hour after administration. […] Blood samples were collected in tubes containing K3EDTA as an anticoagulant and placed on ice until processed to plasma via centrifugation. Samples were stored frozen at −80° C. until shipment to the bioanalytical laboratory for analysis.
The following parameters were determined:
Cmax: Maximum observed plasma concentration (ng/mL).
A value of 0 ng/mL was assigned to all values below the lower limit of quantitation (BLQ, <10.0 ng/mL).
AUC(0-inf): Area under the plasma concentration vs. time curve extrapolated from 0 to infinity (ng*h/mL), calculated as AUC(0-t)+AUC(t-inf) where AUC(t-inf) is calculated as last measurable concentration (CLast) divided by ke, where ke is the elimination rate constant determined by linear regression of the last three analytically measured points on the log plasma concentration vs. time curve. The selection criteria of the data points for inclusion in the calculation of ke required that at least three data points representing the terminal phase (after Tmax) were regressed and that R2≧0.850 when rounded.
CL: Clearance (L/h/kg), calculated as the dose divided by AUC(0-t).
Vd: Volume of distribution (L/kg), calculated as dose divided by the product of ke and AUC(0-inf).
Vdss: Steady state volume of distribution (L/kg), calculated as clearance […] mean residence time, where mean residence time is calculated as the area under the first moment curve divided by AUC(0-t).
t½: Elimination half-life (h), calculated as ln(2)/ke, where ke is the elimination rate constant determined by linear regression. Half-life was defined as not determined if regression criteria (specified in AUC(0-inf) above) were not met.
Cmax/Dose: Normalized Cmax, calculated as Cmax divided by total dose.
AUC/Dose: Normalized AUC, calculated as AUC(0-t) divided by total dose.
ii. Statistical Analysis Mean and standard deviation (SD) were calculated in Watson. Values of BLQ were assigned a value of 0 ng/mL for mean calculations. Concentration values and derived TK parameters were reported to three significant figures.

[1] = 2 mg/kg, oral 2 mg/kg, Study Day 1, Overall
[2] = 2 mg/kg, oral 2 mg/kg, Study Day 14, Overall
[3] = 5 mg/kg, oral 5 mg/kg, Study Day 1, Overall
[4] = 5 mg/kg, oral 5 mg/kg, Study Day 14, Overall

`CN1CCN(c2ccc(Nc3ncc4cc5n(c4n3)C3(CCCCC3)CNC5=O)nc2)CC1` [Compound 1, 2′-((5-(4-methylpiperazin-1-yl)pyridin-2-yl)amino)-7′,8′-dihydro-6′H-spiro[cyclohexane-1,9′-pyrazino[1′,2′:1,5]pyrrolo[2,3-d]pyrimidin]-6′-one] gave a concentration at 0.5 h (2 mg/kg, oral 2 mg/kg, Day 1, 0.5 h) of 83.7 ng/mL, a concentration at 1 h (2 mg/kg, oral 2 mg/kg, Day 1, 1 h) of 74.3 ng/mL and a concentration at 2 h (2 mg/kg, oral 2 mg/kg, Day 1, 2 h) of 149 ng/mL. It also gave a concentration at 4 h (2 mg/kg, oral 2 mg/kg, Day 1, 4 h) of 150 ng/mL, a concentration at 8 h (2 mg/kg, oral 2 mg/kg, Day 1, 8 h) of 93.6 ng/mL and a concentration at 12 h (2 mg/kg, oral 2 mg/kg, Day 1, 12 h) of 67.9 ng/mL. It also gave a concentration at 24 h (2 mg/kg, oral 2 mg/kg, Day 1, 24 h) of 6.5 ng/mL, a concentration at 0.5 h (2 mg/kg, oral 2 mg/kg, Day 14, 0.5 h) of 88.2 ng/mL and a concentration at 1 h (2 mg/kg, oral 2 mg/kg, Day 14, 1 h) of 78.5 ng/mL. For the same compound, the concentration at 2 h (2 mg/kg, oral 2 mg/kg, Day 14, 2 h) was 142 ng/mL, the concentration at 4 h (2 mg/kg, oral 2 mg/kg, Day 14, 4 h) was 119 ng/mL and the concentration at 8 h (2 mg/kg, oral 2 mg/kg, Day 14, 8 h) was 103 ng/mL. It also gave a concentration at 12 h (2 mg/kg, oral 2 mg/kg, Day 14, 12 h) of 51.9 ng/mL, a concentration at 24 h (2 mg/kg, oral 2 mg/kg, Day 14, 24 h) of 4.32 ng/mL and an AUC(0-inf) [1] of 1770 ng·h/mL. For the same compound, the AUC(0-t) [1] was 1730 ng·h/mL, the Cmax [1] was 150 ng/mL and the Tmax [1] was 4 h. For the same compound, the half-life [1] was 4 h, the AUC(0-inf) [2] was 1550 ng·h/mL and the AUC(0-t) [2] was 1530 ng·h/mL. It also gave a Cmax [2] of 142 ng/mL, a Tmax [2] of 2 h and a half-life [2] of 3.46 h. The concentration at 0.5 h (5 mg/kg, oral 5 mg/kg, Day 1, 0.5 h) was 252 ng/mL, the concentration at 1 h (5 mg/kg, oral 5 mg/kg, Day 1, 1 h) was 300 ng/mL and the concentration at 2 h (5 mg/kg, oral 5 mg/kg, Day 1, 2 h) was 391 ng/mL. The concentration at 4 h (5 mg/kg, oral 5 mg/kg, Day 1, 4 h) was 445 ng/mL, the concentration at 8 h (5 mg/kg, oral 5 mg/kg, Day 1, 8 h) was 318 ng/mL and the concentration at 12 h (5 mg/kg, oral 5 mg/kg, Day 1, 12 h) was 168 ng/mL. For the same compound, the concentration at 24 h (5 mg/kg, oral 5 mg/kg, Day 1, 24 h) was 22.1 ng/mL, the concentration at 0.5 h (5 mg/kg, oral 5 mg/kg, Day 14, 0.5 h) was 348 ng/mL and the concentration at 1 h (5 mg/kg, oral 5 mg/kg, Day 14, 1 h) was 389 ng/mL. For the same compound, the concentration at 2 h (5 mg/kg, oral 5 mg/kg, Day 14, 2 h) was 470 ng/mL, the concentration at 4 h (5 mg/kg, oral 5 mg/kg, Day 14, 4 h) was 430 ng/mL and the concentration at 8 h (5 mg/kg, oral 5 mg/kg, Day 14, 8 h) was 262 ng/mL. The concentration at 12 h (5 mg/kg, oral 5 mg/kg, Day 14, 12 h) was 151 ng/mL, the concentration at 24 h (5 mg/kg, oral 5 mg/kg, Day 14, 24 h) was 18 ng/mL and the AUC(0-inf) [3] was 5150 ng·h/mL. It also gave an AUC(0-t) [3] of 5020 ng·h/mL, a Cmax [3] of 445 ng/mL and a Tmax [3] of 4 h. It also gave a half-life [3] of 4.14 h, an AUC(0-inf) [4] of 4930 ng·h/mL and an AUC(0-t) [4] of 4820 ng·h/mL. The Cmax [4] was 470 ng/mL, the Tmax [4] was 2 h and the half-life [4] was 4.08 h. It also gave a concentration at 0.5 h (15 mg/kg, oral 15 mg/kg, Day 1, 0.5 h) of 899 ng/mL, a concentration at 1 h (15 mg/kg, oral 15 mg/kg, Day 1, 1 h) of 1170 ng/mL and a concentration at 2 h (15 mg/kg, oral 15 mg/kg, Day 1, 2 h) of 1490 ng/mL. The concentration at 4 h (15 mg/kg, oral 15 mg/kg, Day 1, 4 h) was 1430 ng/mL, the concentration at 8 h (15 mg/kg, oral 15 mg/kg, Day 1, 8 h) was 1230 ng/mL and the concentration at 12 h (15 mg/kg, oral 15 mg/kg, Day 1, 12 h) was 767 ng/mL. For the same compound, the concentration at 24 h (15 mg/kg, oral 15 mg/kg, Day 1, 24 h) was 84.5 ng/mL.
